≈ marks a conversion by molar mass, not a printed value.

Holding throughout (assay): liquid turbidimetric microtiter MIC determination
Common to all, as to format: cell-based

Assay [1] relates to Enterococcus faecalis MB 5407. The following applies: MB5407, brain heart infusion broth. The text has this:
(§1) The antibacterial activities of compounds (IV), (X) against a panel of aerobic Gram positive and negative bacteria is shown in the following Table. The assay employs a liquid turbidimetric microtiter method for the determination of the minimum inhibitory concentration (MIC) in brain heart infusion broth. […] The MIC is generally not an absolute value but rather a concentration range that falls within a two-fold dilution limit. Generally twelve two-fold dilutions of the test compound are employed with the initial concentration set at 128 mcg/ml.

The test system of assay [2] is Staphylococcus aureus MB 2865. Conditions: MB2865, brain heart infusion broth.
Excerpt: as §1

Assay [3] has as its system Steptococcus viridans CL 2943. The following applies: brain heart infusion broth.
Excerpt: as §1

Assay [4] relates to Enterococcus faecium MB 5416. The following applies: MB5416, brain heart infusion broth.
Excerpt: as §1

Assay [5] relates to Streptococcus agalactiae CL 1343. The following applies: CL1343, brain heart infusion broth.
Excerpt: as §1

A further assay relates to Escherichia coli MB 4926. Conditions: MB4926, brain heart infusion broth.
Excerpt: as §1

The subject of assay [6] is Pseudomonas stutzeri MB 1231. Conditions: Stutzerimonas stutzeri, MB1231, brain heart infusion broth.
Excerpt: as §1

Assay [7] relates to Streptococcus pyogenes MB 54061. Conditions: MB54061, brain heart infusion broth.
Excerpt: as §1

Assay [8] deals with Staphylococcus epidermidis MB 5414. The following applies: MB5414, brain heart infusion broth.
Excerpt: as §1

The subject of the next assay is Escherichia coli MB 2884. Conditions: MB2884, brain heart infusion broth.
Excerpt: as §1

Assay [9] concerns Yersinia enterocoltica CL 1598. Conditions: CL1598, brain heart infusion broth.
Excerpt: as §1

Assay [10] deals with Streptococcus pyogenes MB 2874. Conditions: MB2874, brain heart infusion broth.
Excerpt: as §1

Assay [11] concerns Klebsiella pneumoniae MB 4005. The following applies: MB4005, brain heart infusion broth.
Excerpt: as §1

In assay [12] the test system is Streptococcus pneumoniae CL 2883. Conditions: CL2883, brain heart infusion broth.
Excerpt: as §1

The subject of assay [13] is Staphylococcus haemolyticus MB 5412. Conditions: MB5412, brain heart infusion broth.
Excerpt: as §1

One may read the MIC as the least concentration at which growth counts as inhibited. Low values mean a more susceptible organism, high ones a less susceptible organism. For `CC[C@H]1OC(=O)[C@H](C)[C@@H](O[C@H]2C[C@@](C)(OC)[C@@H](O)[C@H](C)O2)[C@H](C)[C@@H](O[C@@H]2O[C@H](C)C[C@H](N(C)C)[C@H]2O)[C@](C)(O)C[C@@H](C)N(C)C[C@H](C)[C@@H](O)[C@]1(C)O` [(X), 9-Deoxo-8a-methyl-8a-aza-8a-homoerythromycin A], the MIC was 4 µg/mL (≈ 5.34 µM) in [1]; 0.5 µg/mL (≈ 0.668 µM) in assay [2]; 1 µg/mL (≈ 1.34 µM) in [3]; 0.25 µg/mL (≈ 0.334 µM) in assay [4]; at most 0.06 µg/mL in [5]; at most 0.06 µg/mL against Escherichia coli MB 4926. In addition, the MIC in assay [6] was at most 0.06 µg/mL; in [7], 128 µg/mL (≈ 171 µM); in [8] it was 1 µg/mL (≈ 1.34 µM); against Escherichia coli MB 2884 it was 1 µg/mL (≈ 1.34 µM); in assay [9], 2 µg/mL (≈ 2.67 µM); in [10], at most 0.06 µg/mL. Besides, the results for the MIC in [11], in assay [12] and in assay [13] were 2 µg/mL (≈ 2.67 µM), at most 0.06 µg/mL and 0.5 µg/mL (≈ 0.668 µM), respectively.
As for `CC[C@H]1OC(=O)[C@H](C)[C@@H](O[C@H]2C[C@@](C)(OC)[C@@H](O)[C@H](C)O2)[C@H](C)[C@@H](O[C@@H]2O[C@H](C)C[C@H](N(C)C)[C@H]2O)[C@](C)(O)C[C@@H](C)NC[C@H](C)[C@@H](O)[C@]1(C)O` [(IV), 9-Deoxo-8a-aza-8a-homoerythromycin A], the MIC in assay [1] was 8 µg/mL (≈ 10.9 µM); in [2], 0.5 µg/mL (≈ 0.68 µM); in [3], 8 µg/mL (≈ 10.9 µM); in assay [4], 0.25 µg/mL (≈ 0.34 µM); in assay [5] it was at most 0.06 µg/mL; with Escherichia coli MB 4926, 2 µg/mL (≈ 2.72 µM). For the same molecule, the MIC in assay [6] was at most 0.06 µg/mL; in assay [7], 128 µg/mL (≈ 174 µM); in assay [8] it was 1 µg/mL (≈ 1.36 µM); against Escherichia coli MB 2884, 4 µg/mL (≈ 5.44 µM); in assay [9] it was 8 µg/mL (≈ 10.9 µM); in assay [10], 0.06 µg/mL (≈ 0.0816 µM). Also, the MIC stood at 64 µg/mL (≈ 87.1 µM) in [11], 0.06 µg/mL (≈ 0.0816 µM) in [12] and 0.5 µg/mL (≈ 0.68 µM) in [13].

These data come from EP0508726A1, “Novel process for the preparation of 9-deoxo-8a-aza-8a-homoerythromycin a and its 8a-alkyl derivatives” (MERCK & CO. INC., priority 1991, dated 1992).
